Test results from PubChem BioAssay AID1259407 (Chemical Carcinogenesis Research Information System (CCRIS), 2018).
Activity calls are given as the source filed them. The rule behind the calls is not given here.

Tested on: CCRIS mutagenicity, Ames/micronucleus/aberration tests
Test: CCRIS mutagenicity studies

## Nc1ccc(Br)cc1
End Point: IN VITRO MICRONUCLEUS, Test System: CHL/IU CELLS, Metabolic Activation: RAT, LIVER, S-9, PHENOBARBITAL AND 5,6-BENZOFLAVONE
  mutagenic call: active; positive
Test System: AMES SALMONELLA TYPHIMURIUM, Strain/Indicator: TA97, Metabolic Activation: HAMSTER, LIVER, S-9, AROCLOR 1254 (10%), Method: PREINCUBATION
  mutagenic call: inactive; negative
Test System: AMES SALMONELLA TYPHIMURIUM, Strain/Indicator: TA97, Metabolic Activation: HAMSTER, LIVER, S-9, AROCLOR 1254 (30%), Method: PREINCUBATION
  mutagenic call: inactive; negative
Test System: AMES SALMONELLA TYPHIMURIUM, Strain/Indicator: TA97, Metabolic Activation: NONE, Method: PREINCUBATION
  mutagenic call: inactive; negative
Test System: AMES SALMONELLA TYPHIMURIUM, Strain/Indicator: TA97, Metabolic Activation: RAT, LIVER, S-9, AROCLOR 1254 (10%), Method: PREINCUBATION
  mutagenic call: inactive; negative
Test System: AMES SALMONELLA TYPHIMURIUM, Strain/Indicator: TA97, Metabolic Activation: RAT, LIVER, S-9, AROCLOR 1254 (30%), Method: PREINCUBATION
  mutagenic call: inactive; negative
Test System: AMES SALMONELLA TYPHIMURIUM, Strain/Indicator: TA98, Metabolic Activation: HAMSTER, LIVER, S-9, AROCLOR 1254 (10%), Method: PREINCUBATION
  mutagenic call: inactive; negative
Test System: AMES SALMONELLA TYPHIMURIUM, Strain/Indicator: TA98, Metabolic Activation: HAMSTER, LIVER, S-9, AROCLOR 1254 (30%), Method: PREINCUBATION
  mutagenic call: inactive; negative
Test System: AMES SALMONELLA TYPHIMURIUM, Strain/Indicator: TA98, Metabolic Activation: NONE, Method: PREINCUBATION
  mutagenic call: inactive; negative
Test System: AMES SALMONELLA TYPHIMURIUM, Strain/Indicator: TA98, Metabolic Activation: RAT, LIVER, S-9, AROCLOR 1254 (10%), Method: PREINCUBATION
  mutagenic call: inactive; negative
Test System: AMES SALMONELLA TYPHIMURIUM, Strain/Indicator: TA98, Metabolic Activation: RAT, LIVER, S-9, AROCLOR 1254 (30%), Method: PREINCUBATION
  mutagenic call: inactive; negative
Test System: AMES SALMONELLA TYPHIMURIUM, Strain/Indicator: TA100, Metabolic Activation: HAMSTER, LIVER, S-9, AROCLOR 1254 (10%), Method: PREINCUBATION
  mutagenic call: inactive; negative
Test System: AMES SALMONELLA TYPHIMURIUM, Strain/Indicator: TA100, Metabolic Activation: HAMSTER, LIVER, S-9, AROCLOR 1254 (30%), Method: PREINCUBATION
  mutagenic call: inactive; negative
Test System: AMES SALMONELLA TYPHIMURIUM, Strain/Indicator: TA100, Metabolic Activation: NONE, Method: PREINCUBATION
  mutagenic call: inactive; negative
Test System: AMES SALMONELLA TYPHIMURIUM, Strain/Indicator: TA100, Metabolic Activation: RAT, LIVER, S-9, AROCLOR 1254 (10%), Method: PREINCUBATION
  mutagenic call: inactive; negative
Test System: AMES SALMONELLA TYPHIMURIUM, Strain/Indicator: TA100, Metabolic Activation: RAT, LIVER, S-9, AROCLOR 1254 (30%), Method: PREINCUBATION
  mutagenic call: inactive; negative
Test System: AMES SALMONELLA TYPHIMURIUM, Strain/Indicator: TA1535, Metabolic Activation: HAMSTER, LIVER, S-9, AROCLOR 1254 (10%), Method: PREINCUBATION
  mutagenic call: inactive; negative
Test System: AMES SALMONELLA TYPHIMURIUM, Strain/Indicator: TA1535, Metabolic Activation: HAMSTER, LIVER, S-9, AROCLOR 1254 (30%), Method: PREINCUBATION
  mutagenic call: inactive; negative
Test System: AMES SALMONELLA TYPHIMURIUM, Strain/Indicator: TA1535, Metabolic Activation: NONE, Method: PREINCUBATION
  mutagenic call: inactive; negative
Test System: AMES SALMONELLA TYPHIMURIUM, Strain/Indicator: TA1535, Metabolic Activation: RAT, LIVER, S-9, AROCLOR 1254 (10%), Method: PREINCUBATION
  mutagenic call: inactive; negative
Test System: AMES SALMONELLA TYPHIMURIUM, Strain/Indicator: TA1535, Metabolic Activation: RAT, LIVER, S-9, AROCLOR 1254 (30%), Method: PREINCUBATION
  mutagenic call: inactive; negative
Test System: E. COLI, Strain/Indicator: WP2 UVRA, Metabolic Activation: NONE, Method: FLUCTUATION TEST
  mutagenic call: inactive; negative
